# According to patent US20220354949A1, “NOVEL COMPOUNDS” (XENIOPRO GmbH, priority 2018, published 2022):
# Key:
# Type in all cases: cell-based
# [1] = tested on: SCC-25 cells (human tongue squamous cell carcinoma cells); assay: Proliferation assay (alamarBlue) with SCC-25 cells; conditions: for Activity Range (weighted arithmetic mean AVEw of normalized fluorescence intensity, relative to DMSO basis level 1.0): 20 μM; for Activity Range (weighted arithmetic mean of normalized fluorescence intensity, relative to DMSO basis level 1.0): control at 40 μM
# Excerpt: (§1) The antiproliferative activities of compounds falling under formula (Ia), (Ib) and (Ic), respectively, were investigated on cells or cell lines originating from a disorder of the haematopoietic system, including the myeloid cell compartment and the lymphoid cell compartment (T-cells and B-cells), the neuroendocrine system, the cervix, the breast, the ovaries, the lung, the gastrointestinal tract, and the mucosal epithelium, as well as from the skin epithelium and from the muscle. To this end, HL-60 cells, NB-4 cells, HH cells, RPMI-8402 cells, TANOUE cells, TT cells, HeLa cells, MDA-MB-231 cells, FU-OV-1 cells, LOU-NH91 cells, 23132/87 cells, CAL-27 cells, BHY cells, SCC-25 cells, A-431 cells, human primary epidermal keratinocytes (HPEK), and C2C12 cells were seeded into 96-well plates suitable for fluorescence assays (CORNING #3598) at following initial cell numbers: 1000 cells per well for HL-60; 1000 cells per well for NB-4; 5000 cells per well for HH; 5000 cells per well for RPMI-8402; 1500 cells per well for TANOUE; 9000 cells per well for TT; 2000 cells per well for HeLa; 3000 cells per well for MDA-MB-231; 3000 cells per well for FU-OV-1; 4000 cells per well for LOU-NH91; 2000 cells per well for 23132/87; 2000 cells per well for CAL-27; 1500 cells per well for BHY; 1500 cells per well for SCC-25; 700 cells per well for A-431; 1000 cells per well for HPEK; 500 cells per well for C2C12. The cells were treated with compounds at indicated final concentrations (diluted from the 1000× stock-solutions in DMSO to a final DMSO concentration of 0.1% v/v in H2O (Water For Injection, WFI, Fisherscientific #10378939)) or with the empty carrier DMSO at 0.1% v/v as control for 5 days. At day 5 after starting the treatments the cells were subjected to the alamarBlue® Proliferation Assay (Bio-Rad Serotec GmbH, BUF012B) according to the protocol of the manufacturer. The readout was taken with a multi-well plate-reader in the fluorescence mode with applying a filter for excitation at 560 nm (band width 10 nm) and for emission at 590 nm (band width 10 nm). Control treatments for growth inhibition with commercial compounds such as Methotrexate (MTREX) and Resveratrol (RES) were included on every plate. Some of the test compounds of the present invention were obtained and applied as their salts. According cases are indicated in the column “Specification” in Table 55 to Table 92 and by their sum formula in Table 93.
# (§2) The assays were performed in duplicate or more replicates of independent single experiments each containing a six-fold replicate for every condition. For every individual plate, the measured fluorescence intensity values of the conditions with compound treatment were normalized against the corresponding equally weighted arithmetic mean of the fluorescence intensity values of the six DMSO treated control wells in order to obtain the relative values to a baseline level of 1.0.
# (§3) Two independent outlier analyses were performed according to the methods by Peirce and Chauvenet (Ross, Journal of Engineering Technology 2003, 1-12). Outliers confirmed by at least one of the methods were excluded from the calculations but not more than one value out of six per compound within a single experiment. The weighted arithmetic mean (here abbreviated as AVEw) for each compound was calculated from the normalized values over all independent replicates of the single experiments comprising the six replicates each. The corresponding standard deviation for the weighted arithmetic mean was calculated according to the method described by Bronstein et al. (Bronstein, Semendjajew, Musiol, Müihlig, Taschenbuch der Mathematik, 5th edition 2001 (German), publisher: Verlag Harri Deutsch, Frankfurt am Main and Thun) and was combined with the Gauß' error propagation associated with the performed calculation for the normalization. The resulting standard deviation is herein referred to as “combined standard deviation”. […]
# [2] = tested on: CAL-27 cells (human tongue squamous cell carcinoma cells); assay: Proliferation assay (alamarBlue) with CAL-27 cells; conditions: for Activity Range (weighted arithmetic mean AVEw of normalized fluorescence intensity, relative to DMSO basis level 1.0): 20 μM; for Activity Range (weighted arithmetic mean of normalized fluorescence intensity, relative to DMSO basis level 1.0): control at 40 μM
# Excerpt: as §1, §2, §3
# [3] = tested on: TT cells (human medullary thyroid carcinoma cells); assay: Proliferation assay (alamarBlue) with TT cells
# Excerpt: as §1, §2, §3
# [4] = tested on: BHY cells (human oral squamous cell carcinoma cells); assay: Proliferation assay (alamarBlue) with BHY cells; set-up: key: fluorescence relative to mean of DMSO control wells = 1.0; conditions: for Activity Range (weighted arithmetic mean AVEw of normalized fluorescence intensity, relative to DMSO basis level 1.0): 20 μM; for Activity Range (weighted arithmetic mean of normalized fluorescence intensity, relative to DMSO basis level 1.0): control at 40 μM
# Excerpt: as §1, §2, §3
# [5] = tested on: FU-OV-1 cells (human ovarian carcinoma cells); assay: Proliferation assay (alamarBlue) with FU-OV-1 cells
# Excerpt: as §1, §2, §3
smiles,measurement,setting,value
"Oc1ccc(C=Cc2cc(O)cc(O)c2)cc1 [RES, Resveratrol]","Activity Range (weighted arithmetic mean AVEw of normalized fluorescence intensity, relative to DMSO basis level 1.0)",[1]; Table 82 (novel compounds),0.4 ± 0.1
same,"Activity Range (weighted arithmetic mean AVEw of normalized fluorescence intensity, relative to DMSO basis level 1.0)",[1]; Table 83 (compounds disclosed in PCT/EP2018/054686),0.4 ± 0.1
same,"Activity Range (weighted arithmetic mean of normalized fluorescence intensity, relative to DMSO basis level 1.0)",[1]; Table 82,0.1 ± 0.0
same,"Activity Range (weighted arithmetic mean of normalized fluorescence intensity, relative to DMSO basis level 1.0)",[1]; Table 83,0.1 ± 0.0
same,"Activity Range (weighted arithmetic mean AVEw of normalized fluorescence intensity, relative to DMSO basis level 1.0)",[2]; Table 77 (novel compounds),0.8 ± 0.1
same,"Activity Range (weighted arithmetic mean AVEw of normalized fluorescence intensity, relative to DMSO basis level 1.0)",[2]; Table 78 (compounds disclosed in PCT/EP2018/054686),0.8 ± 0.1
same,"Activity Range (weighted arithmetic mean of normalized fluorescence intensity, relative to DMSO basis level 1.0)",[2]; Table 77,0.4 ± 0.3
same,"Activity Range (weighted arithmetic mean of normalized fluorescence intensity, relative to DMSO basis level 1.0)",[2]; Table 78,0.4 ± 0.3
same,Activity Range: weighted arithmetic mean (AVEw) of normalized fluorescence intensity relative to DMSO basis level 1.0,"[3]; compound at 20 μM, Table 65 (novel compounds)",0.9 ± 0.0
same,Activity Range: weighted arithmetic mean (AVEw) of normalized fluorescence intensity relative to DMSO basis level 1.0,"[3]; compound at 20 μM, Table 66 (compounds of PCT/EP2018/054686)",0.9 ± 0.0
same,Activity Range: weighted arithmetic mean (AVEw) of normalized fluorescence intensity relative to DMSO basis level 1.0,"[3]; control at 40 μM, Table 65",0.7 ± 0.0
same,Activity Range: weighted arithmetic mean (AVEw) of normalized fluorescence intensity relative to DMSO basis level 1.0,"[3]; control at 40 μM, Table 66",0.7 ± 0.0
same,"Activity Range (weighted arithmetic mean AVEw of normalized fluorescence intensity, relative to DMSO basis level 1.0)",[4]; Table 80 (compounds disclosed in PCT/EP2018/054686),0.5 ± 0.1
same,"Activity Range (weighted arithmetic mean AVEw of normalized fluorescence intensity, relative to DMSO basis level 1.0)",[4]; Table 81 (compounds disclosed in PCT/EP2018/054686),0.5 ± 0.1
same,"Activity Range (weighted arithmetic mean of normalized fluorescence intensity, relative to DMSO basis level 1.0)",[4]; Table 79,0.3 ± 0.0
same,"Activity Range (weighted arithmetic mean of normalized fluorescence intensity, relative to DMSO basis level 1.0)",[4]; Table 80,0.3 ± 0.0
same,"Activity Range (weighted arithmetic mean of normalized fluorescence intensity, relative to DMSO basis level 1.0)",[4]; Table 81,0.3 ± 0.0
same,Activity Range: weighted arithmetic mean (AVEw) of normalized fluorescence intensity relative to DMSO basis level 1.0,"[5]; compound at 20 μM, Table 71 (novel compounds)",0.7 ± 0.0
same,Activity Range: weighted arithmetic mean (AVEw) of normalized fluorescence intensity relative to DMSO basis level 1.0,"[5]; compound at 20 μM, Table 72 (compounds of PCT/EP2018/054686)",0.7 ± 0.0
same,Activity Range: weighted arithmetic mean (AVEw) of normalized fluorescence intensity relative to DMSO basis level 1.0,"[5]; control at 40 μM, Table 71",0.4 ± 0.0
same,Activity Range: weighted arithmetic mean (AVEw) of normalized fluorescence intensity relative to DMSO basis level 1.0,"[5]; control at 40 μM, Table 72",0.4 ± 0.0
